The subject of this test is MDBK line. Put plainly: MTT Cell Proliferation Assay, MDBK cells. The conditions noted are these: for IC50: Bos taurus, MDBK, Table 11, second of x/y(ratio): MDBK. The test is classed as cell-based, bovine. The essentials: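 Each concentration ran in quadruplicate across duplicate plates, with compounds serially diluted in DMSO and delivered at 0.5% DMSO in 0.5% FBS medium for 3 days.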

Molecules are shown by their SMILES. Like-named read-outs stand apart in the source and are kept apart here.

As to `CCc1cc2c(CN3CCN(Cc4ccc5c(c4)OCO5)CC3)cc(=O)oc2cc1O` [AD4-1734], the IC50 (unit inferred, read-out: MTT Follow-up (second value)) worked out at 40.2 µM and the IC50 (unit not printed (doses in μM), read-out: MTT Screen (second value)) came out at 42.5 µM. In addition, the “activity in MDBK cells” value was 0 (standard at 23.5 μM final concentration) and “less than 50%” (standard at 31.125 μM final concentration).

(Values after patent US20140179681A1, “METHODS AND COMPOSITIONS OF TARGETED DRUG DEVELOPMENT” (priority 2010, published 2014).)
